Test results as given in patent US10405547B2, “Substituted cyclic amides as herbicides” (FMC Corporation, priority 2015, dated 2019).

Legend:
Assay type in all cases: in vivo
Settings in all cases: 0 to 100 scale (0 no effect, 100 complete control)
[1] = tested on: ragweed (common ragweed, Ambrosia elatior); assay: Test A postemergence, ragweed
Description: (§1) Test A Seeds of plant species selected from barnyardgrass (Echinochloa crus-galli), kochia (Kochia scoparia), ragweed (common ragweed, Ambrosia elatior), ryegrass, Italian (Lolium multiflorum), foxtail, giant (Setaria faberii), and pigweed (Amaranthus retroflexus), were planted into a blend of loam soil and sand and treated preemergence with a directed soil spray using test chemicals formulated in a non-phytotoxic solvent mixture which included a surfactant.
(§2) At the same time, plants selected from these weed species and also blackgrass (Alopecurus myosuroides), galium (catchweed bedstraw, Galium aparine), wheat (Triticum aestivum), and corn (Zea mays) were planted in pots containing the same blend of loam soil and sand and treated with postemergence applications of test chemicals formulated in the same manner. Plants ranged in height from 2 to 10 cm and were in the one- to two-leaf stage for the postemergence treatment. Treated plants and untreated controls were maintained in a greenhouse for approximately 10 days, after which time all treated plants were compared to untreated controls and visually evaluated for injury. Plant response ratings, summarized in Table A, are based on a 0 to 100 scale where 0 is no effect and 100 is complete control. A dash (-) response means no test result.

[2] = tested on: foxtail, giant (Setaria faberii); assay: Test A preemergence, giant foxtail
Description: as §1, §2

[3] = tested on: wheat (Triticum aestivum); assay: Test A postemergence, wheat
Description: as §1, §2

corn (Zea mays) = assay: Test A postemergence, corn
Description: as §1, §2

[4] = tested on: barnyardgrass (Echinochloa crus-galli); assay: Test A preemergence, barnyardgrass
Description: as §1, §2

[5] = tested on: ragweed (common ragweed, Ambrosia elatior); assay: Test A preemergence, ragweed
Description: as §1, §2

[6] = tested on: foxtail, giant (Setaria faberii); assay: Test A postemergence, giant foxtail
Description: as §1, §2

[7] = tested on: blackgrass (Alopecurus myosuroides); assay: Test A postemergence, blackgrass
Description: as §1, §2

[8] = tested on: pigweed (Amaranthus retroflexus); assay: Test A postemergence, pigweed
Description: as §1, §2

[9] = tested on: galium (catchweed bedstraw, Galium aparine); assay: Test A postemergence, galium
Description: as §1, §2

kochia (Kochia scoparia) [10] = assay: Test A postemergence, kochia
Description: as §1, §2

[11] = tested on: ryegrass, Italian (Lolium multiflorum); assay: Test A postemergence, Italian ryegrass
Description: as §1, §2

[12] = tested on: pigweed (Amaranthus retroflexus); assay: Test A preemergence, pigweed
Description: as §1, §2

kochia (Kochia scoparia) [13] = assay: Test A preemergence, kochia
Description: as §1, §2

[14] = tested on: ryegrass, Italian (Lolium multiflorum); assay: Test A preemergence, Italian ryegrass
Description: as §1, §2

[15] = tested on: barnyardgrass (Echinochloa crus-galli); assay: Test A postemergence, barnyardgrass
Description: as §1, §2

[16] = 125 g ai/ha, visual injury, approximately 10 days
[17] = 500 g ai/ha, visual injury, approximately 10 days

SMILES	Plant response rating, Ragweed ([1]; 31 g ai/ha)	Plant response rating, Ragweed [1, 16]	Plant response rating, Foxtail, Giant ([2]; 31 g ai/ha)	Plant response rating, Foxtail, Giant ([2]; 125 g ai/ha)	Plant response rating, Wheat ([3]; 31 g ai/ha)	Plant response rating, Wheat [3, 16]	Plant response rating, Corn (corn (Zea mays); 31 g ai/ha)	Plant response rating, Corn (corn (Zea mays); [16])	Plant response rating, Barnyardgrass ([4]; 125 g ai/ha)	Plant response rating, Ragweed ([5]; 125 g ai/ha)	Plant response rating, Foxtail, Giant [6, 16]	Plant response rating, Blackgrass [7, 16]	Plant response rating, Pigweed [8, 16]	Plant response rating, Galium [9, 16]	Plant response rating, Kochia (kochia (Kochia scoparia) [10]; [16])	Plant response rating, Ryegrass, Italian [11, 16]	Plant response rating, Pigweed ([12]; 125 g ai/ha)	Plant response rating, Kochia (kochia (Kochia scoparia) [13]; 125 g ai/ha)	Plant response rating, Ryegrass, Italian ([14]; 125 g ai/ha)	Plant response rating, Barnyardgrass [15, 16]	other results
CN1CC(c2cccc(Oc3ncc(F)cc3F)c2)C(C(=O)Nc2cccc(F)c2F)C1=O (single isomer, unassigned) [Compound 73]	0	30	80	90	20	20	20	20	90	0	90	40	60	60	20	40	0	20	40	70	Plant response rating, Barnyardgrass ([4]; 31 g ai/ha): 50; Plant response rating, Ragweed ([5]; 31 g ai/ha): 0; Plant response rating, Foxtail, Giant ([6]; 31 g ai/ha): 60; Plant response rating, Blackgrass ([7]; 31 g ai/ha): 0; Plant response rating, Pigweed ([8]; 31 g ai/ha): 50; Plant response rating, Galium ([9]; 31 g ai/ha): 50; Plant response rating, Kochia (kochia (Kochia scoparia) [10]; 31 g ai/ha): 0; Plant response rating, Ryegrass, Italian ([11]; 31 g ai/ha): 0; Plant response rating, Pigweed ([12]; 31 g ai/ha): 0; Plant response rating, Kochia (kochia (Kochia scoparia) [13]; 31 g ai/ha): 0; Plant response rating, Ryegrass, Italian ([14]; 31 g ai/ha): 0; Plant response rating, Barnyardgrass ([15]; 31 g ai/ha): 60
CN1CC(c2cccc(Oc3ncc(F)cc3F)c2)C(C(=O)Nc2ccc(F)c(F)c2F)C1=O (single isomer, unassigned) [Compound 74]	0	20	90	100	0	20	0	20	90	0	80	20	60	70	50	30	80	40	80	90	Plant response rating, Barnyardgrass ([4]; 31 g ai/ha): 70; Plant response rating, Ragweed ([5]; 31 g ai/ha): 0; Plant response rating, Foxtail, Giant ([6]; 31 g ai/ha): 70; Plant response rating, Blackgrass ([7]; 31 g ai/ha): 0; Plant response rating, Pigweed ([8]; 31 g ai/ha): 0; Plant response rating, Galium ([9]; 31 g ai/ha): 40; Plant response rating, Kochia (kochia (Kochia scoparia) [10]; 31 g ai/ha): 20; Plant response rating, Ryegrass, Italian ([11]; 31 g ai/ha): 0; Plant response rating, Pigweed ([12]; 31 g ai/ha): 0; Plant response rating, Kochia (kochia (Kochia scoparia) [13]; 31 g ai/ha): 0; Plant response rating, Ryegrass, Italian ([14]; 31 g ai/ha): 30; Plant response rating, Barnyardgrass ([15]; 31 g ai/ha): 60
O=C1NCC(c2cccc(COc3ccccc3)c2)C1C(=O)Nc1cccc(F)c1F (stereo not shown) [Compound 21]		0		20		0		0	0	0	30	0	0	0	0	0	0	0	0	20	Plant response rating, Ragweed [1, 17]: 0; Plant response rating, Foxtail, Giant ([2]; 500 g ai/ha): 60; Plant response rating, Wheat [3, 17]: 0; Plant response rating, Corn (corn (Zea mays); [17]): 0; Plant response rating, Barnyardgrass ([4]; 500 g ai/ha): 40; Plant response rating, Ragweed ([5]; 500 g ai/ha): 0; Plant response rating, Foxtail, Giant [6, 17]: 30; Plant response rating, Blackgrass [7, 17]: 0; Plant response rating, Pigweed [8, 17]: 0; Plant response rating, Galium [9, 17]: 0; Plant response rating, Kochia (kochia (Kochia scoparia) [10]; [17]): 0; Plant response rating, Ryegrass, Italian [11, 17]: 0; Plant response rating, Pigweed ([12]; 500 g ai/ha): 0; Plant response rating, Kochia (kochia (Kochia scoparia) [13]; 500 g ai/ha): 20; Plant response rating, Ryegrass, Italian ([14]; 500 g ai/ha): 0; Plant response rating, Barnyardgrass [15, 17]: 20
O=C1NCC(c2cccc(COc3ccccc3)c2)C1C(=O)Nc1ccc(F)cc1F (stereo not shown) [Compound 20]		0		30		0		0	20	0	40	0	0	0	0	0	0	0	0	40	Plant response rating, Ragweed [1, 17]: 0; Plant response rating, Foxtail, Giant ([2]; 500 g ai/ha): 80; Plant response rating, Wheat [3, 17]: 0; Plant response rating, Corn (corn (Zea mays); [17]): 0; Plant response rating, Barnyardgrass ([4]; 500 g ai/ha): 70; Plant response rating, Ragweed ([5]; 500 g ai/ha): 0; Plant response rating, Foxtail, Giant [6, 17]: 60; Plant response rating, Blackgrass [7, 17]: 0; Plant response rating, Pigweed [8, 17]: 0; Plant response rating, Galium [9, 17]: 0; Plant response rating, Kochia (kochia (Kochia scoparia) [10]; [17]): 0; Plant response rating, Ryegrass, Italian [11, 17]: 0; Plant response rating, Pigweed ([12]; 500 g ai/ha): 0; Plant response rating, Kochia (kochia (Kochia scoparia) [13]; 500 g ai/ha): 30; Plant response rating, Ryegrass, Italian ([14]; 500 g ai/ha): 0; Plant response rating, Barnyardgrass [15, 17]: 70
CN1CC(c2cccc(Oc3ncc(F)cc3F)c2)C(C(=O)Nc2ccccc2F)C1=O (single isomer, unassigned) [Compound 72]	0	30	90	90	0	20	0	20	90	0	90	60	30	60	20	50	0	0	50	90	Plant response rating, Barnyardgrass ([4]; 31 g ai/ha): 90; Plant response rating, Ragweed ([5]; 31 g ai/ha): 0; Plant response rating, Foxtail, Giant ([6]; 31 g ai/ha): 80; Plant response rating, Blackgrass ([7]; 31 g ai/ha): 20; Plant response rating, Pigweed ([8]; 31 g ai/ha): 0; Plant response rating, Galium ([9]; 31 g ai/ha): 40; Plant response rating, Kochia (kochia (Kochia scoparia) [10]; 31 g ai/ha): 0; Plant response rating, Ryegrass, Italian ([11]; 31 g ai/ha): 20; Plant response rating, Pigweed ([12]; 31 g ai/ha): 0; Plant response rating, Kochia (kochia (Kochia scoparia) [13]; 31 g ai/ha): 0; Plant response rating, Ryegrass, Italian ([14]; 31 g ai/ha): 0; Plant response rating, Barnyardgrass ([15]; 31 g ai/ha): 60
